The NIST ThermoML archive (doi:10.1016/j.jct.2015.01.005)
Several values for one entry are separate records, joined by “and”; a condition that tells them apart may be missing. Identical values can stand only once.

Tests used:
[1] = molar heat capacity at constant pressure; details: 101.33 kPa, Crystal 2, Small (less than 1 g) adiabatic calorimetry
[2] = Molar enthalpy of transition or fusion; details: DSC
[3] = for molar entropy: 101.33 kPa, Small (less than 1 g) adiabatic calorimetry; for vapor or sublimation pressure: Calculated from knudsen effusion weight loss; for Triple point temperature: DTA

O[C@@H]1[C@@H](O)[C@@H]2OC[C@@H](O2)[C@H]1O [1,6-anhydro-β-D-glucopyranose]
Details	Molar enthalpy of transition or fusion [kcal/mol]	Triple point temperature [K]	molar heat capacity at constant pressure [J/K/mol]
[1], 5 K	–	–	0.138
[1], 10 K	–	–	1.118
[1], 15 K	–	–	3.898
[1], 20 K	–	–	7.99
[1], 25 K	–	–	12.65
[1], 30 K	–	–	17.41
[1], 35 K	–	–	22.01
[1], 40 K	–	–	26.36
[1], 45 K	–	–	30.52
[1], 50 K	–	–	34.47
[1], 60 K	–	–	41.86
[1], 70 K	–	–	48.71
[1], 80 K	–	–	55.17
[1], 90 K	–	–	61.41
[1], 100 K	–	–	67.71
[1], 110 K	–	–	74.28
[1], 120 K	–	–	79.92
[1], 130 K	–	–	85.48
[1], 140 K	–	–	91.03
[1], 150 K	–	–	96.6
[1], 160 K	–	–	102.2
[1], 170 K	–	–	107.8
[1], 180 K	–	–	113.5
[1], 190 K	–	–	119.2
[1], 200 K	–	–	125
[1], 210 K	–	–	130.9
[1], 220 K	–	–	136.9
[1], 230 K	–	–	143
[1], 240 K	–	–	149.2
[1], 250 K	–	–	155.5
[1], 260 K	–	–	162
[1], 270 K	–	–	168.5
[1], 280 K	–	–	175.1
[1], 290 K	–	–	181.7
[1], 298.15 K	–	–	187.2
[1], 300 K	–	–	188.5
[1], 310 K	–	–	195.5
[1], 320 K	–	–	202.7
[1], 330 K	–	–	210.3
[1], 340 K	–	–	218.6
[1], 350 K	–	–	227.1
[1], 360 K	–	–	235.5
[1], 370 K	–	–	244
[1], 380 K	–	–	252.5
[1], 384 K	–	–	255.9
[2], Crystal 1	0.693	–	–
[2], Crystal 2	5.98	–	–
[3], Crystal 1	–	454	–
[3], Crystal 2	–	384	–

[3]
Details	molar entropy [J/K/mol]	vapor or sublimation pressure
5 K, Crystal 2	0.145	–
10 K, Crystal 2	0.302	–
15 K, Crystal 2	1.222	–
20 K, Crystal 2	2.884	–
25 K, Crystal 2	5.162	–
30 K, Crystal 2	7.89	–
35 K, Crystal 2	10.92	–
40 K, Crystal 2	14.15	–
45 K, Crystal 2	17.49	–
50 K, Crystal 2	20.92	–
60 K, Crystal 2	27.86	–
70 K, Crystal 2	34.84	–
80 K, Crystal 2	41.77	–
90 K, Crystal 2	48.63	–
100 K, Crystal 2	55.42	–
110 K, Crystal 2	62.19	–
120 K, Crystal 2	68.89	–
130 K, Crystal 2	75.51	–
140 K, Crystal 2	82.05	–
150 K, Crystal 2	88.52	–
160 K, Crystal 2	94.93	–
170 K, Crystal 2	101.3	–
180 K, Crystal 2	107.6	–
190 K, Crystal 2	113.9	–
200 K, Crystal 2	120.2	–
210 K, Crystal 2	126.4	–
220 K, Crystal 2	132.6	–
230 K, Crystal 2	138.9	–
240 K, Crystal 2	145.1	–
250 K, Crystal 2	151.3	–
260 K, Crystal 2	157.5	–
270 K, Crystal 2	163.7	–
280 K, Crystal 2	170	–
290 K, Crystal 2	176.3	–
298.15 K, Crystal 2	181.4	–
300 K, Crystal 2	182.5	–
310 K, Crystal 2	188.8	–
320 K, Crystal 2	195.1	–
330 K, Crystal 2	201.5	–
340 K, Crystal 2	207.9	–
350 K, Crystal 2	214.4	–
353.55 K, Crystal 2	–	2.63e-05 kPa
353.56 K, Crystal 2	–	2.36e-05 kPa
358.59 K, Crystal 2	–	4.61e-05 kPa
360 K, Crystal 2	220.9	–
363.6 K, Crystal 2	–	8.11e-05 kPa
368.61 K, Crystal 2	–	0.00014 kPa
368.62 K, Crystal 2	–	0.000141 kPa and 0.00014 kPa
370 K, Crystal 2	227.4	–
373.63 K, Crystal 2	–	0.000248 kPa and 0.000254 kPa
373.64 K, Crystal 2	–	0.000243 kPa
378.63 K, Crystal 2	–	0.00041 kPa
378.64 K, Crystal 2	–	0.000426 kPa
378.65 K, Crystal 2	–	0.000416 kPa
380 K, Crystal 2	234.1	–
383.65 K, Crystal 2	–	0.000688 kPa and 0.000723 kPa
383.66 K, Crystal 2	–	0.000727 kPa and 0.000742 kPa
384 K, Crystal 1	301.8	–
384 K, Crystal 2	236.7	–
